In patent EP0388528B1, “Carboximidamide derivatives” (KIRIN BEER KABUSHIKI KAISHA, priority 1988, dated 1990):

Legend:
beagles = assay: Hemodynamic profile in beagles (intraduodenally); format: in vivo; conditions: intraduodenal 100 µg/kg, percent change from pretreatment; for Total Peripheral Resistance: mean aortic blood pressure / (coronary + aortic blood flow)
Method: The aortic blood pressure, the heart rate and the coronary blood flow of the beagles anesthetized with pentobarbital were determined in the same manner as in the aforementioned Example 1)-7, and the aortic blood flow was measured with an electromagnetic flowmeter (MFV-3100, manufactured by Nihon Kohden) by attaching a probe at the origin of the aorta [test compound: N-cyano-N′-(2-nitroxyethyl)-3-pyridinecarboximidamide (compound (13))]. A nelaton's tube was inserted into the duodenum via a small abdominal incision for administration of the compound (13) (100 µg/kg). Time course changes in respective measurement items were expressed as percent changes from the pretreatment values. Total peripheral resistance was calculated by dividing the mean aortic blood pressure with the sum of the coronary blood flow and the aortic blood flow.

[1] = system: spontaneous hypertensive rats (SHR); assay: Hypotensive effect on spontaneous hypertensive rats (intravenously) (Referential Example 1)-3); format: in vivo; conditions: Rattus norvegicus, iv, anesthetized SHR, dose descending mean blood pressure by 20%; read-out: ED₂₀ (mg/kg, i.v.)
Method: Rats were anesthetized with urethane-α-chloralose (1 g/kg - 25 mg/kg; intraperitoneally). Mean blood pressure was measured by a pressure transducer through a cannula inserted into the carotid artery. The compound was cumulatively administered every 30 minutes through the cannula inserted into the jagular vein. The change in blood pressure was expressed as percent of the blood pressure before the administration of the compound. And the ED₂₀ value, which was the dose required for descending blood pressure to an extent of 20%, was calculated from the dose-response curve.

[2] = system: spontaneous hypertensive rats (SHR); assay: Hypotensive effect on spontaneous hypertensive rats (orally); format: in vivo; conditions: systolic pressure 2 hours after administration
Method: Systolic pressure of the rats fasted for 24 hour was measured by using the tail cuff method before and 2 hours after administration of the compound. The compound was dissolved in a mixed solvent of polyethylene glycol 200 : physiological saline = 1:1. The control group was administered the solvent alone. The change in blood pressure was expressed as percent of the blood pressure before the administration of the compound in respective groups.

potassium channel = assay: Potassium channel activating effect (86Rb efflux from rat thoracic aorta); conditions: compound 10⁻⁴ M for 8 minutes, percent of the efflux before application
Method: Male Wistar rats (weighing 250-350 g) were dehematized to death, and thoracic aortae were rapidly isolated. The aorta was opened along the longitudinal axis to prepare a flat sheet. The preparation was loaded with ⁸⁶Rb in the Krebs-Ringer solution which contained ⁸⁶Rb in the concentration of 10 µCi/ml and was gassed with 95% O₂ - 5% CO₂ at 37°C for 2 hours. The preparation was then transferred to a Krebs-Ringer solution not containing ⁸⁶Rb, and washed to remove excess radioactivity for 18 minutes by refreshing the solution every 2 minutes. Finally the preparation was placed into a Krebs-Ringer solution containing each compound (10⁻⁴ M) for 8 minutes.
The amount of ⁸⁶Rb efflux from the preparation in each period was determined with a γ-counter.
The increment in efflux rate during the application of the compound was expressed as percent of the efflux before the application of the compound.

isolated heart of rats = assay: Myocardiac injury induced by re-perfusion after ischemia (isolated heart of rats); conditions: 1×10⁻⁷ mole/min, after 30 minutes re-perfusion, mean ± SD
Method: The cardiac muscle protecting effect of the compound of the present invention was tested by using the isolated heart of rats [test compound: N-cyano-N′-(2-nitroxyethyl)-3-pyridinecarboximidamide (compound (13))]. The Langendorff's method was used in the same manner as in the aforementioned Referential Example 1)-6. The isolated heart was perfused with a perfusate for 30 minutes and then with a perfusate containing the test compound for 10 minutes, and perfusion was stopped so that the heart was in the so-called "ischemic state". Pacing was performed during the ischemia. […] Parameters of cardiac function after the onset of re-perfusion was monitored for 30 minutes, and the heart was quickly freezed. The amount of ATP in the heart muscle was extracted with perchloric acid and determined by HPLC. Nicorandil was used as a control.
The recovery rate of the cardiac function (heart rate × left ventricular pressure) after onset of reperfusion was calculated based on the cardiac function prior to the perfusion of the compound (13) and nicorandil as 100%. The amount of ATP in the heart muscle was also determined.

isolated rat aortae = assay: Vasorelaxing effect on the isolated rat aortae (Referential Example 1)-1); conditions: inhibition of contraction induced by 40 mM KCl
Method: The compounds of the present invention were tested for their physiological activities by measuring the tension of isolated rat aortae isometrically.
Thoracic aortae obtained from male Wistar rats (weighing 250-350 g) were cut into ring segments about 3 mm long. The ring preparation was placed in an organ bath filled with 10 ml of Krebs-Ringer solution that was maintained at 37°C and gassed with 95% O₂ - 5% CO₂.
The preparation in the organ bath was allowed to equilibrate under resting tension of 1 g. After equilibration period, the solution in the organ bath was replaced with an isotonic solution containing 40 mM KCl to contract the preparation.
After the contraction induced by KCl had reached plateau, the concentration-response relationship for the test compound was determined by means of cumulative addition.
The relaxation response of the test compounds was expressed as the percent inhibition of the contraction induced by KCl, and the IC₅₀ value, which is a concentration required for inhibiting the contraction induced by KCl to an extent of 50%, was calculated by the Probit method from the concentration-response curve.

## N#CNC(=NCCO[N+](=O)[O-])c1cccnc1 [Compound (13), N-cyano-N'-(2-nitroxyethyl)-3-pyridinecarboximidamide]
beagles; 1 min after dosage
  Aortic Blood Flow: 10.0%
  Coronary Blood Flow: 1.8± 1.8%
  Heart Rate: 0%
  Mean Aortic Blood Pressure: -9.8± 1.0%
  Total Peripheral Resistance: -17.8%
beagles; 2 min after dosage
  Aortic Blood Flow: 12.2%
  Coronary Blood Flow: 14.4± 2.1%
  Heart Rate: 1.6± 1.6%
  Mean Aortic Blood Pressure: -14.3± 1.3%
  Total Peripheral Resistance: -24.1%
beagles; 3 min after dosage
  Aortic Blood Flow: 15.1%
  Coronary Blood Flow: 38.4± 9.1%
  Heart Rate: 0%
  Mean Aortic Blood Pressure: -21.2± 1.2%
  Total Peripheral Resistance: -33.7%
beagles; 5 min after dosage
  Aortic Blood Flow: 27.0%
  Coronary Blood Flow: 121.5± 22.0%
  Heart Rate: -12.1± 5.1%
  Mean Aortic Blood Pressure: -35.0± 2.0%
  Total Peripheral Resistance: -49.5%
beagles; 7.5 min after dosage
  Aortic Blood Flow: 25.5%
  Coronary Blood Flow: 142.3± 6.5%
  Heart Rate: -17.5± 4.1%
  Mean Aortic Blood Pressure: -37.0± 2.9%
  Total Peripheral Resistance: -50.3%
beagles; 10 min after dosage
  Aortic Blood Flow: 15.0%
  Coronary Blood Flow: 112.8± 10.6%
  Heart Rate: -21.1± 4.4%
  Mean Aortic Blood Pressure: -42.0± 2.9%
  Total Peripheral Resistance: -51.1%
beagles; 20 min after dosage
  Aortic Blood Flow: 10.7%
  Coronary Blood Flow: 64.2± 15.4%
  Heart Rate: -26.1± 5.5%
  Mean Aortic Blood Pressure: -49.4± 3.1%
  Total Peripheral Resistance: -55.3%
beagles; 30 min after dosage
  Aortic Blood Flow: 8.3%
  Coronary Blood Flow: 60.1± 15.1%
  Heart Rate: -26.5± 4.6%
  Mean Aortic Blood Pressure: -49.0± 3.7%
  Total Peripheral Resistance: -55.8%
beagles; 60 min after dosage
  Aortic Blood Flow: 0.5%
  Coronary Blood Flow: 28.0± 11.6%
  Heart Rate: -10.0± 1.4%
  Mean Aortic Blood Pressure: -36.5± 7.3%
  Total Peripheral Resistance: -44.3%
[1]
  ED20: 0.01 mg/kg
[2]; 0.3 mg/kg p.o.
  Decreasing Rate of Blood Pressure (%): 6.76 ± 1.53%
[2]; 0.5 mg/kg p.o.
  Decreasing Rate of Blood Pressure (%): 9.12 ± 2.41%
[2]; 1.0 mg/kg p.o.
  Decreasing Rate of Blood Pressure (%): 27.31 ± 2.32%
[2]; 3.0 mg/kg p.o.
  Decreasing Rate of Blood Pressure (%): 49.99 ± 2.48%
Potassium channel
  Increment of Efflux (%): 213.53%
Isolated heart of rats
  Amount of ATP in the heart muscle (µmole/g of dry weight): 11.12±1.12(6) µmole/g of dry weight
Isolated rat aortae
  IC50: 5.1 µM
